Source: patent US20230310438A1 (priority 2019, published 2023)
Entries after “also recorded” stand apart in the source; their conditions may differ.

Test system: whole blood of youth with OUD and healthy controls
Type: cell-based, human

Molecule	Th-polarizing cytokine production	induction of cytokines and chemokines such as IL-12p40, IL-6, CXCL8, CXCL10, CCL2 and TNF
CCOCc1nc2c(N)nc3ccccc3c2n1CC(C)(C)O [Formula R848, resiquimod]	robust and balanced	–
monophosphoryl lipid A [MPLA]	–	reduced; also recorded: impaired
